The supplement of paper PMC13380429

How the values were obtained:
[1] = system: HepG2; assay: cell viability relative to DMSO; higher = less toxic; settings: 72 h
[2] = system: Caco-2; assay: as above; settings: 72 h
[3] = system: Vero E6; assay: as above; settings: 72 h
[4] = system: U2OS; assay: as above; settings: 72 h
[5] = system: Calu-3; assay: as above; settings: 72 h
[6] = system: A549-ACE2; assay: drug-induced phospholipidosis relative to tamoxifen; higher = more phospholipidosis
[7] = system: A549-ACE2 infected with SARS-CoV-2; assay: SARS-CoV-2 infection rate relative to DMSO; higher = more infection; settings: 24 h
[8] = system: Caco-2; assay: relative viability EC50 (midpoint between 100% and the lowest measured viability); higher = less toxic; settings: 72 h
[9] = system: Vero E6; assay: as above; settings: 72 h
[10] = system: U2OS; assay: as above; settings: 72 h
[11] = system: Calu-3; assay: as above; settings: 72 h
[12] = system: A549-ACE2; assay: phospholipidosis EC50; higher = less potent phospholipidosis inducer
[13] = system: A549-ACE2 infected with SARS-CoV-2; assay: cell count relative to DMSO; higher = less toxic; settings: 24 h
[14] = system: HepG2; assay: drug sensitivity score (DSS) for viability; higher = more toxic; extreme values may be limits of the assay; settings: 72 h
[15] = system: Caco-2; assay: as above; settings: 72 h
[16] = system: Vero E6; assay: as above; settings: 72 h
[17] = system: U2OS; assay: as above; settings: 72 h
[18] = system: Calu-3; assay: as above; settings: 72 h
[19] = system: A549-ACE2 infected with SARS-CoV-2; assay: morphology score (similarity to uninfected cells); higher = more like uninfected cells; settings: 24 h
[20] = system: HepG2; assay: relative viability EC50 (midpoint between 100% and the lowest measured viability); higher = less toxic; settings: 72 h

CN1CCN(CCCN2c3ccccc3Sc3ccc(Cl)cc32)CC1 [prochlorperazine]
Settings	SARS-CoV-2 infection rate [%]	cell count [%]	cell viability [%]	morphology score	phospholipidosis EC50 [µM]
[1], 1 nM	–	–	107	–	–
[1], 10 nM	–	–	102	–	–
[1], 100 nM	–	–	97	–	–
[1], 1000 nM	–	–	106	–	–
[1], 10000 nM	–	–	55.5	–	–
[2], 1 nM	–	–	100	–	–
[2], 10 nM	–	–	84.1	–	–
[2], 100 nM	–	–	96.9	–	–
[2], 1000 nM	–	–	99.8	–	–
[2], 10000 nM	–	–	76.6	–	–
[3], 1 nM	–	–	96	–	–
[3], 10 nM	–	–	92.5	–	–
[3], 100 nM	–	–	101	–	–
[3], 1000 nM	–	–	97.4	–	–
[3], 10000 nM	–	–	81	–	–
[4], 1 nM	–	–	103	–	–
[4], 10 nM	–	–	94.5	–	–
[4], 100 nM	–	–	98.6	–	–
[4], 1000 nM	–	–	94	–	–
[4], 10000 nM	–	–	91.4	–	–
[5], 1 nM	–	–	106	–	–
[5], 10 nM	–	–	103	–	–
[5], 100 nM	–	–	105	–	–
[5], 1000 nM	–	–	105	–	–
[5], 10000 nM	–	–	93.2	–	–
[7], 0.3 µM	95	–	–	–	–
[7], 3 µM	29	–	–	–	–
[7], 10 µM	12	–	–	–	–
[7], 30 µM	50	–	–	–	–
[12], 24 h	–	–	–	–	3.19
[12], 48 h	–	–	–	–	4.05
[12], 72 h	–	–	–	–	12.5
[13], 0.3 µM	–	100	–	–	–
[13], 3 µM	–	123	–	–	–
[13], 10 µM	–	117	–	–	–
[13], 30 µM	–	64	–	–	–
[19], 0.3 µM	–	–	–	0	–
[19], 3 µM	–	–	–	0.84	–
[19], 10 µM	–	–	–	0.79	–
[19], 30 µM	–	–	–	0.19	–

drug-induced phospholipidosis [%], [6]
Settings	0.3 µM	0.833333 µM	3.33333 µM	6.66667 µM	10 µM	30 µM
24 h	1.08	10.5	48.6	76.3	92.2	56.6
48 h	0.82	7.81	45.8	83.3	94.4	–
72 h	3.57	9.54	35	75	104	–

Settings	drug sensitivity score	relative viability EC50 [µM]
[8]	–	> 10
[9]	–	> 10
[10]	–	> 10
[11]	–	> 10
[14]	1.9	–
[15]	0.9	–
[16]	0.9	–
[17]	0	–
[18]	0	–

CN1C2C=C(c3sccc3Br)CC1CC2 (stereo not drawn) [NS-3861]
Settings	SARS-CoV-2 infection rate, [7] [%]	cell count, [13] [%]	cell viability, [1] [%]	cell viability, [2] [%]	cell viability, [3] [%]	cell viability, [4] [%]	morphology score, [19]
1 nM	–	–	107	101	98.9	97.6	–
10 nM	–	–	107	103	99.5	101	–
100 nM	–	–	97.2	92.4	99	95.3	–
0.3 µM	97	99	–	–	–	–	0
1000 nM	–	–	89.2	106	96.7	100	–
3 µM	83	109	–	–	–	–	0.45
10000 nM	–	–	92.5	101	97.2	94.6	–
10 µM	75	104	–	–	–	–	0.4
30 µM	41	113	–	–	–	–	0.77

drug-induced phospholipidosis [%], [6]
Settings	0.3 µM	0.833333 µM	3.33333 µM	6.66667 µM	10 µM	30 µM
24 h	1.11	-3.88	-0.69	-1.21	2.15	14.7
48 h	2.52	-3.07	-1.18	-0.52	-0.04	12.8
72 h	4.83	-2.54	-0.115	0.151	0.487	12.9

Settings	drug sensitivity score	relative viability EC50 [µM]
[8]	–	> 10
[9]	–	> 10
[10]	–	> 10
[14]	0.3	–
[15]	0	–
[16]	0	–
[17]	0	–
[20]	–	> 10

COc1ccc2cc1Oc1ccc(cc1)C[C@H]1c3cc(c(OC)cc3CCN1C)Oc1c(OC)c(OC)cc3c1[C@H](C2)N(C)CC3 [tetrandrine]
Settings	SARS-CoV-2 infection rate [%]	cell count [%]	cell viability [%]	morphology score	phospholipidosis EC50 [µM]
[1], 1 nM	–	–	104	–	–
[1], 10 nM	–	–	102	–	–
[1], 100 nM	–	–	97.7	–	–
[1], 1000 nM	–	–	94.1	–	–
[1], 10000 nM	–	–	71.5	–	–
[2], 1 nM	–	–	100	–	–
[2], 10 nM	–	–	97.9	–	–
[2], 100 nM	–	–	92.1	–	–
[2], 1000 nM	–	–	95.4	–	–
[2], 10000 nM	–	–	79.5	–	–
[3], 1 nM	–	–	100	–	–
[3], 10 nM	–	–	94.2	–	–
[3], 100 nM	–	–	94.6	–	–
[3], 1000 nM	–	–	94.4	–	–
[3], 10000 nM	–	–	92.6	–	–
[5], 1 nM	–	–	88.3	–	–
[5], 10 nM	–	–	109	–	–
[5], 100 nM	–	–	91.3	–	–
[5], 1000 nM	–	–	99.9	–	–
[5], 10000 nM	–	–	29.1	–	–
[7], 0.3 µM	92	–	–	–	–
[7], 3 µM	23	–	–	–	–
[7], 10 µM	21	–	–	–	–
[7], 30 µM	42	–	–	–	–
[12], 24 h	–	–	–	–	7
[12], 48 h	–	–	–	–	10.2
[12], 72 h	–	–	–	–	5.6
[13], 0.3 µM	–	106	–	–	–
[13], 3 µM	–	115	–	–	–
[13], 10 µM	–	119	–	–	–
[13], 30 µM	–	79	–	–	–
[19], 0.3 µM	–	–	–	0.37	–
[19], 3 µM	–	–	–	0.79	–
[19], 10 µM	–	–	–	0.07	–
[19], 30 µM	–	–	–	-0.15	–

drug-induced phospholipidosis [%], [6]
Settings	0.3 µM	0.833333 µM	3.33333 µM	6.66667 µM	10 µM	30 µM
24 h	16.2	29.5	61.4	78	92.7	115
48 h	16.2	22.2	51.1	78.8	101	145
72 h	8.49	16.5	49.2	80.6	103	176

Settings	drug sensitivity score	relative viability EC50 [µM]
[8]	–	> 10
[9]	–	> 10
[11]	–	3.15
[14]	2.1	–
[15]	0.7	–
[16]	0	–
[18]	3.9	–
